Read-outs that look alike come from different tables or passages of the source.
Experiments:
[1] = tested on: iCell endothelial cells (human iPSC-derived ECs); test: Tube formation (tubulogenesis) assay in iCell endothelial cells, 18 h; format: cell-based; details: Homo sapiens, Endothelial cell, 18 hr; for activity at 0.1 µM: 0.10 µM
Outline: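 iCell ECs (passages 1–5) seeded 7,500 cells/well on reduced-growth-factor Geltrex in starvation medium, exposed overnight at 37°C to compounds in triplicate concentration–response (0.5% DMSO vehicle). Calcein AM staining, 4× imaging, angiogenesis image analysis; readouts normalized to vehicle, four-parameter logistic fit, POD at 1 SD of vehicle; 100 μM assigned NOAEL if no response.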

[2] = tested on: iCell endothelial cells (human iPSC-derived ECs); test: High-content imaging cytotoxicity in iCell endothelial cells, 24 h; format: cell-based; details: for viability at 0.01 µM / activity at 0.01 µM / viability at 0.1 µM / activity at 0.1 µM / viability at 1 µM / activity at 1 µM / viability at 10 µM / activity at 10 µM / viability at 100 µM / activity at 100 µM / minimal effective concentration: Homo sapiens, Endothelial cell, 24 hr; for viability at 0.1 µM / activity at 0.1 µM: 0.10 µM
Outline: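 Human iPSC-derived endothelial cells (passages 1–5) were grown to a fibronectin-coated monolayer, then exposed 24 h at 37 °C with 0.5% DMSO vehicle. Staining was Hoechst 33342, MitoTracker Orange and calcein AM, read by high-content imaging. Point of departure came from 4-parameter logistic fits, with a 1-SD vehicle cutoff and 100 µM as the top concentration.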

[3] = iPSC-EC tube formation, 0.00 µM control = 100.00, read-out: endo.mtl.18hr
[4] = iPSC-EC tube formation, 0.00 µM control = 100.00, read-out: endo.tlps.18hr
[5] = iPSC-EC tube formation, 0.00 µM control = 100.00, read-out: endo.tta.18hr
[6] = iPSC-EC tube formation, 0.00 µM control = 100.00, read-out: endo.ttl.18hr
[7] = iPSC-EC, 0.00 µM control = 100.00, read-out: endo.cyto.24hr
[8] = iPSC-EC, 0.00 µM control = 100.00, read-out: endo.mito.24hr
[9] = iPSC-EC, 0.00 µM control = 100.00, read-out: endo.mitoint.24hr
[10] = iPSC-EC, 0.00 µM control = 100.00, read-out: endo.nma.24hr
[11] = iPSC-EC, 0.00 µM control = 100.00, read-out: endo.tc.24hrs

Oc1ccc(O)c(-c2ccc(Cl)cc2)c1 [2',5'-DiOH PCB3]
activity at 0.01 µM [1, 3]: 99.4%
activity at 0.01 µM [1, 4]: 100%
activity at 0.01 µM [1, 5]: 127%
activity at 0.01 µM [1, 6]: 115%
activity at 0.1 µM [1, 3]: 104%
activity at 0.1 µM [1, 4]: 103%
activity at 0.1 µM [1, 5]: 104%
activity at 0.1 µM [1, 6]: 98.5%
activity at 1 µM [1, 3]: 62%
activity at 1 µM [1, 4]: 66.5%
activity at 1 µM [1, 5]: 60.7%
activity at 1 µM [1, 6]: 55%
activity at 10 µM [1, 3]: 61.7%
activity at 10 µM [1, 4]: 30.6%
activity at 10 µM [1, 5]: 64.9%
activity at 10 µM [1, 6]: 63%
activity at 100 µM [1, 3]: 58.4%
activity at 100 µM [1, 4]: 7.76%
activity at 100 µM [1, 5]: 0.41%
activity at 100 µM [1, 6]: 0.74%
minimal effective concentration ([1]; iPSC-EC tube formation, top concentration 100.00 µM, read-out: endo.mtl.18hr POD): 0.47 µM
minimal effective concentration ([1]; iPSC-EC tube formation, top concentration 100.00 µM, read-out: endo.tlps.18hr POD): 0.53 µM
minimal effective concentration ([1]; iPSC-EC tube formation, top concentration 100.00 µM, read-out: endo.tta.18hr POD): 1.63 µM
minimal effective concentration ([1]; iPSC-EC tube formation, top concentration 100.00 µM, read-out: endo.ttl.18hr POD): 1.51 µM
viability at 0.01 µM [2, 7]: 90.8%
activity at 0.01 µM [2, 8]: 91.1%
activity at 0.01 µM [2, 9]: 127%
activity at 0.01 µM [2, 10]: 103%
viability at 0.01 µM [2, 11]: 90.8%
viability at 0.1 µM [2, 7]: 93.4%
activity at 0.1 µM [2, 8]: 94%
activity at 0.1 µM [2, 9]: 109%
activity at 0.1 µM [2, 10]: 101%
viability at 0.1 µM [2, 11]: 93.5%
viability at 1 µM [2, 7]: 99.2%
activity at 1 µM [2, 8]: 99.2%
activity at 1 µM [2, 9]: 104%
activity at 1 µM [2, 10]: 98.6%
viability at 1 µM [2, 11]: 99.2%
viability at 10 µM [2, 7]: 86.5%
activity at 10 µM [2, 8]: 86.6%
activity at 10 µM [2, 9]: 108%
activity at 10 µM [2, 10]: 101%
viability at 10 µM [2, 11]: 86.5%
viability at 100 µM [2, 7]: 12.2%
activity at 100 µM [2, 8]: 2.34%
activity at 100 µM [2, 9]: 28.7%
activity at 100 µM [2, 10]: 184%
viability at 100 µM [2, 11]: 17%
minimal effective concentration ([2]; iPSC-EC, top concentration 100.00 µM, read-out: endo.cyto.24hr POD): 6.71 µM
minimal effective concentration ([2]; iPSC-EC, top concentration 100.00 µM, read-out: endo.mito.24hr POD): 6.71 µM
minimal effective concentration ([2]; iPSC-EC, top concentration 100.00 µM, read-out: endo.mitoint.24hr POD): 44.6 µM
minimal effective concentration ([2]; iPSC-EC, top concentration 100.00 µM, read-out: endo.nma.24hr POD): 13.7 µM
minimal effective concentration ([2]; iPSC-EC, top concentration 100.00 µM, read-out: endo.tc.24hrs POD): 5.78 µM

Clc1ccc(-c2ccccc2)cc1 [PCB 3, 4-chlorobiphenyl]
minimal effective concentration ([1]; endothelial cells (endo), tube formation mtl, read-out: POD endo.mtl.18hr): 100 µM
minimal effective concentration ([1]; endothelial cells (endo), tube formation tlps, read-out: POD endo.tlps.18hr): 100 µM
minimal effective concentration ([1]; endothelial cells (endo), tube formation tta, read-out: POD endo.tta.18hr): 100 µM
minimal effective concentration ([1]; endothelial cells (endo), tube formation ttl, read-out: POD endo.ttl.18hr): 100 µM
minimal effective concentration ([2]; endothelial cells (endo), cyto, read-out: POD endo.cyto.24hr): 100 µM
minimal effective concentration ([2]; endothelial cells (endo), mito, read-out: POD endo.mito.24hr): 100 µM
minimal effective concentration ([2]; endothelial cells (endo), mitoint, read-out: POD endo.mitoint.24hr): 100 µM
minimal effective concentration ([2]; endothelial cells (endo), nma, read-out: POD endo.nma.24hr): 100 µM
minimal effective concentration ([2]; endothelial cells (endo), tc, read-out: POD endo.tc.24hr): 100 µM
effect on cell viability in iPSC-ECs ([2]; iPSC-ECs, 0.01-100 μM): did not affect cell viability

Reference: publication PMC7377239, “Cardiovascular Effects of Polychlorinated Biphenyls and Their Major Metabolites” (Environmental Health Perspectives, 2020)
